Measurements: US20240318220A1, “IONIC LIQUIDS BASED ON UNNATURAL AMINO ACIDS, PREPARATION METHODS THEREOF, AND APPLICATIONS THEREOF” (PEKING UNIVERSITY, priority 2022, published 2024)

What was measured:
[1] = Serum concentration curve of NAEK after oral administration; assay type: in vivo; settings: mice, 30 mg NAEK or equimolar amount
Description: FIG. 5B. […] The NAEK content in the serum reached a maximum of about 1.6 μg/mL two hours after oral administration, as evidenced by the curve in the NAEK-aqueous solution group. Subsequently, 8 hours after oral administration, the NAEK content in the serum diminished to nearly zero, indicating rapid metabolism of NAEK, which could be completed in 6 hours. […] Furthermore, only 22 hours after oral administration, the serum NAEK content approached zero, indicating complete metabolism within approximately […].
Two experimental groups were set, with 12 mice in each group. In one group, each mouse was orally administered with 30 mg NAEK aqueous solution, and in the other group, each mouse was orally administered with an equimolar amount of Ch-NAEK. Blood was collected from the orbital plexus of the mice at 1 h, 2 h, 4 h, 6 h, 8 h, 9 h, 10 h, 14 h, 19 h, and 22 h time points to plot the NAEK serum concentration in mice as function of time (FIG. 5B).

[2] = test system: mdx mice; assay: Full-length expression of Dystrophin in muscle tissue by immunoblotting; assay type: in vivo; settings: mdx mice with AAV-MmpylRS-tRNA, oral, 2 weeks
Description: FIG. 12. Flow Diagram of Treating DMD Disease in Mdx Mouse Model Using Ionic Liquid Ch-NAEK and the Codon Expansion System Experimental exploration was conducted to investigate the treatment of DMD disease. Following successful synthesis, identification and activity evaluation of the three ionic liquids Ch-NAEK, Ch-pAcF and Ch-Anap, Ch-NAEK was selected as the preferred ionic liquid for subsequent disease treatment. mdx mice with DMD disease were initially intramuscularly injected with AAV-MmpylRS-tRNA virus and subsequently orally administered with Ch-NAEK (at a mass volume fraction of 70%) daily for four weeks. Muscle tissue samples were collected in the first, second, and fourth weeks for detection of Dystrophin protein restoration. HE pathological staining of mouse muscle tissue, determination of serum CK kinase content, and testing of mouse grip strength were performed.
mdx mice, a classic mouse model for DMD (Duchenne Muscular Dystrophy) research, have a nonsense mutation of TAA at the […] of Dystrophin exon, resulting in the failure of normal expression of Dystrophin, and thus leading to symptoms of muscle atrophy in muscle and heart tissues in mice. mdx mice injected with AAV-MmpylRS-tRNA virus were divided into two experimental groups. […] The therapeutic effects were evaluated at the time points of 1, 2, and 4 weeks after administration. […]

maximum NAEK content in serum [1]: about 1.6 μg/mL | time after oral administration at which serum NAEK content approached zero [1]: 8 h | time for complete metabolism of NAEK [1]: 6 h | time of maximum serum NAEK content after oral administration [1]: two
Compound: [N-]=[N+]=NCCOC(=O)NCCCC[C@H](N)C(=O)O [NAEK-aqueous solution]
restoration of full-length disease protein (Dystrophin) expression, in words [2]: very low
